# Key:
# Type in all cases: in vivo
# dog IgE [1] = experiment: Subcutaneous administration test using rats: IgG antibody against dog IgE (ELISA); conditions: 50 μg three times, no adjuvant
# Protocol: The dog IgE protein (Bethyl Laboratories, Inc.; P115), the mouse IgE protein (BD Biosciences, San Jose, Calif., USA), and the human IgE protein (Athens Research And Technology, Inc.; 16-16-090705-ML) were each prepared at 1 μg/mL, 500 ng/mL, 250 ng/mL, 125 ng/mL, 62.5 ng/mL, 31.2 ng/mL, 15.6 ng/mL, 7.8 ng/mL, 3.9 ng/mL, 1.95 ng/mL, and 0.97 ng/mL in an immobilization buffer (0.05 M carbonate buffer, pH 9.6), then added at a concentration of 100 μL/well to an ELISA plate, and left overnight at 4° C. The immobilization plate was washed once with PBS-T (0.05%). A blocking solution (4× Block Ace, Snow Brand Milk Products Co., Ltd.; UK-B80) was added thereto at a concentration of 200 μL/well. The plate was blocked by incubation at 37° C. for 1.5 hours. The serum was diluted 2000-fold with a diluent (PBS-T:Block Ace=9:1) and used. The serum of an unimmunized rat was similarly diluted and used as a negative control. […] Then, the measurement was performed using a plate reader (Bio-Rad Laboratories, Inc.; model 680) (dual: measurement: 450 nm, control: 570 nm).
# This peptide was used in the immunization of rats without the use of an adjuvant, and antibody response to dog IgE was evaluated. […]
# (§1) Blood was collected every 2 weeks from the administer start date. […] Serum was collected, and an IgG antibody against dog IgE was evaluated by ELISA (FIG. 16). […]
# Der f 2-specific IgE = experiment: Prevention experiment in rats: Der f 2-specific IgE (ELISA); conditions: rat, 50 μg three times, then Der f 2 + alum
# Protocol: Der f 2 was prepared at 1 μg/mL in an immobilization buffer (0.05 M carbonate buffer, pH 9.6), then added at a concentration of 100 μL/well to an ELISA plate, and left overnight at 4° C. The immobilization plate was washed once with PBS-T (0.05%). A blocking solution (4× Block Ace, Snow Brand Milk Products Co., Ltd.; UK-B80) was added thereto at a concentration of 200 μL/well. The plate was blocked by incubation at 37° C. for 1.5 hours. The serum was diluted 20-fold with a diluent (PBS-T:Block Ace=9:1) and used. The plate was reacted with the serum at 37° C. for 1.5 hours and washed three times with PBS-T (0.05%). An anti-rat IgE antibody (Rabbit anti-Rat IgE HRP; Invitrogen Corp., 61-9520) was diluted 1000-fold with a diluent and added thereto as a secondary antibody at a concentration of 100 μL/well. After reaction at 37° C. for 1.5 hours, the plate was washed three times with PBS-T (0.05%). […] Then, the measurement was performed using a plate reader (Bio-Rad Laboratories, Inc.; model 680) (dual: measurement: 450 nm, control: 570 nm). […]
# as §1
# dog IgG = experiment: Reactivity of serum of peptide-immunized rabbit with dog IgG (ELISA); conditions: 500 μg peptide + complete adjuvant s.c.
# Protocol: (§2) 2 mL of the 250 μg/mL peptide (a total of 500 μg) used in Example 2 was mixed with an equal amount of a complete adjuvant (a total of 4 mL). Each rabbit was immunized with this mixture by the subcutaneous administration (amount of the peptide: 500 μg) at day 0 and weeks 2, 4, 6, and 8. Blood was collected 5 weeks after the week-8 administration (week 13 counted from day 0). Booster immunization was performed at week 14 counted from day 0, and blood was further collected 2 weeks thereafter (week 16 counted from day 0). Antibody titers in the collected blood were measured by ELISA. The serum of a rabbit that received no peptide was used as a control.
# (§3) ELISA was performed by the following method: each […] recombinant CH3 solution of dog IgE, human IgE, mouse IgE, dog IgG, and cat IgE was immobilized at a concentration of 100 μL/well (100 ng/well) to a plate. The serum collected from the immunized rabbit was used (×200 to ×102400) as a primary antibody. An enzyme-labeled anti-rabbit IgG antibody (Zymed Laboratories Inc.) was used as a secondary antibody.
# cat IgE = experiment: Reactivity of serum of peptide-immunized rabbit with cat IgE recombinant CH3 (ELISA); conditions: 500 μg peptide + complete adjuvant s.c.
# Protocol: as §2, §3
# dog IgE [2] = experiment: Reactivity of serum of peptide-immunized rabbit with dog IgE (ELISA); conditions: 500 μg peptide + complete adjuvant s.c.
# Protocol: as §2, §3
# Target sequence in this assay (as listed by the source): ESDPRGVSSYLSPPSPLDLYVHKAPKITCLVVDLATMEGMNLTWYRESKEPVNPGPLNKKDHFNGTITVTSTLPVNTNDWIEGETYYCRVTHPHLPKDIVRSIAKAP
Sequence,level of the rat IgG antibody against dog IgE (dog IgE [1]; intravenous),level of the rat IgG antibody against dog IgE (dog IgE [1]; subcutaneous),Der f 2-specific IgE production compared with the control group (saline) (Der f 2-specific IgE; intravenous),Der f 2-specific IgE production compared with the control group (saline) (Der f 2-specific IgE; subcutaneous (group 2)),response of immobilized dog IgG to peptide-administered rabbit serum (dog IgG),response of immobilized cat IgE to peptide-administered rabbit serum (cat IgE),response of immobilized dog IgE to peptide-administered rabbit serum (dog IgE [2])
KKTSVSASQWYTKHHNNATT (listed as Mus musculus) [M4-7-11],confirmed to elevate,confirmed to elevate,inhibition of IgE production was confirmed,inhibition of IgE production was remarkably confirmed,,,
QEKKTSVSASQWYTKHHNNATTSIT (listed as Mus musculus) [MOUSE CH3-4-17-11],,,,,responded to neither,responded,responded

# — patent US9657071B2, “IgE peptide vaccine” (NIPPON ZENYAKU KOGYO CO., LTD., priority 2012, dated 2017)
